Results: US7138361B2, “Herbicidal heterocycles” (E. I. du Pont de Nemours and Company, priority 2000, dated 2006)

Tests used:
Type in all cases: in vivo
kochia (Kochia scoparia) [1] = experiment: Test C preemergence; settings: for Plant response rating (0 to 100), Kochia: Rate 500 g/ha, visual evaluation after 12 to 14 days
Outline: (§1)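 Herbicidal effect is a visual 0–100 score (100 = complete control) assigned versus untreated plants, 12 to 14 days after spraying in the greenhouse. Test compounds were applied in a non-phytotoxic, surfactant-containing solvent.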

[2] = test system: cocklebur (Xanthium strumarium); experiment: Test C preemergence; settings: for Plant response rating (0 to 100), Cocklebur: Rate 500 g/ha, visual evaluation after 12 to 14 days
Outline: as §1

[3] = test system: common ragweed (Ambrosia elatior); experiment: Test C preemergence; settings: for Plant response rating (0 to 100), Ragweed, Common: Rate 500 g/ha, visual evaluation after 12 to 14 days
Outline: as §1

Nightshade = experiment: Test C preemergence
Sunflower = experiment: Test C preemergence; settings: Rate 500 g/ha, visual evaluation after 12 to 14 days
[4] = test system: lambsquarters (Chenopodium album); experiment: Test C postemergence
Outline: as §1

[5] = test system: woolly cupgrass (Eriochloa villosa); experiment: Test C postemergence
Outline: as §1

[6] = test system: bermudagrass (Cynodon dactylon); experiment: Test C postemergence
Outline: as §1

kochia (Kochia scoparia) [7] = experiment: Test C postemergence
Outline: as §1

[8] = test system: johnsongrass (Sorghum halepense); experiment: Test C postemergence
Outline: as §1

[9] = test system: giant foxtail (Setaria faberii); experiment: Test C postemergence
Outline: as §1

[10] = test system: velvetleaf (Abutilon theophrasti); experiment: Test C postemergence
Outline: as §1

[11] = test system: crabgrass (Digitaria sanguinalis); experiment: Test C postemergence
Outline: as §1

[12] = test system: cocklebur (Xanthium strumarium); experiment: Test C postemergence
Outline: as §1

[13] = test system: Surinam grass (Brachiaria decumbens); experiment: Test C postemergence
Outline: as §1

[14] = test system: yellow nutsedge (Cyperus esculentus); experiment: Test C postemergence
Outline: as §1

corn (Zea mays) = experiment: Test C postemergence
Outline: as §1

[15] = test system: goosegrass (Eleusine indica); experiment: Test C postemergence
Outline: as §1

[16] = test system: pigweed (Amaranthus retroflexus); experiment: Test C postemergence
Outline: as §1

soybean (Glycine max) = experiment: Test C postemergence
Outline: as §1

[17] = test system: morningglory (Ipomoea hederacea); experiment: Test C postemergence
Outline: as §1

[18] = Rate 125 g/ha, scale 0 to 100, 0 no effect, 100 complete control
[19] = preemergence, Rate 62 g/ha, scale 0 to 100
[20] = preemergence, Rate 250 g/ha, scale 0 to 100, 0 no effect, 100 complete control
[21] = Rate 250 g/ha, scale 0 to 100, 0 no effect, 100 complete control
[22] = Rate 250 g/ha, scale 0 to 100 (0 no effect, 100 complete control)
[23] = Rate 500 g/ha, scale 0 to 100 (0 no effect, 100 complete control)

CCC(CC)c1ccn(C2OCN(c3cccc(OC(F)F)c3)C2=O)n1 (stereo not drawn) [Compound 131]
Plant response rating, Kochia (kochia (Kochia scoparia) [1]; [18]): 100 | Plant response rating, Kochia (kochia (Kochia scoparia) [1]; [19]): 100 | Plant response rating (0 to 100), Kochia (kochia (Kochia scoparia) [1]; preemergence): 100 | Plant response rating, Kochia (kochia (Kochia scoparia) [1]; [20]): 100 | Plant response rating, Cocklebur [2, 18]: 0 | Plant response rating, Cocklebur [2, 19]: 0 | Plant response rating (0 to 100), Cocklebur ([2]; preemergence): 30 | Plant response rating, Cocklebur [2, 20]: 30 | Plant response rating, Ragweed, Common [3, 18]: 0 | Plant response rating, Ragweed, Common [3, 19]: 0 | Plant response rating (0 to 100), Ragweed, Common ([3]; preemergence): 100 | Plant response rating, Ragweed, Common [3, 20]: 0 | Plant response rating, Nightshade (Nightshade; Rate 62 g/ha, scale 0 to 100): 90 | Plant response rating, Nightshade (Nightshade; [18]): 100 | Plant response rating, Nightshade (Nightshade; [21]): 100 | Plant response rating (0 to 100), Sunflower (Sunflower): 20 | Plant response rating, Lambsquarters ([4]; Rate 62 g/ha, scale 0 to 100): 100 | Plant response rating, Lambsquarters [4, 22]: 100 | Plant response rating, Lambsquarters [4, 23]: 100 | Plant response rating, Cupgrass, Woolly ([5]; Rate 62 g/ha, scale 0 to 100): 10 | Plant response rating, Cupgrass, Woolly [5, 22]: 70 | Plant response rating, Cupgrass, Woolly [5, 23]: 80 | Plant response rating, Bermudagrass ([6]; Rate 62 g/ha, scale 0 to 100): 20 | Plant response rating, Bermudagrass [6, 18]: 60 | Plant response rating, Bermudagrass [6, 22]: 90 | Plant response rating, Bermudagrass [6, 23]: 90 | Plant response rating, Kochia (kochia (Kochia scoparia) [7]; Rate 62 g/ha, scale 0 to 100): 60 | Plant response rating, Kochia (kochia (Kochia scoparia) [7]; [22]): 80 | Plant response rating, Kochia (kochia (Kochia scoparia) [7]; [23]): 90 | Plant response rating, Johnsongrass ([8]; Rate 62 g/ha, scale 0 to 100): 0 | Plant response rating, Johnsongrass [8, 23]: 30 | Plant response rating, Johnsongrass ([8]; rate not given, scale 0 to 100): 20 | Plant response rating, Foxtail, Giant ([9]; Rate 62 g/ha, scale 0 to 100): 20 | Plant response rating, Foxtail, Giant [9, 22]: 50 | Plant response rating, Foxtail, Giant [9, 23]: 80 | Plant response rating, Velvetleaf ([10]; Rate 62 g/ha, scale 0 to 100): 20 | Plant response rating, Velvetleaf [10, 22]: 20 | Plant response rating, Velvetleaf [10, 23]: 30 | Plant response rating, Velvetleaf ([10]; scale 0 to 100): 20 | Plant response rating, Crabgrass [11, 22]: 80 | Plant response rating, Crabgrass [11, 23]: 90 | Plant response rating, Cocklebur ([12]; Rate 62 g/ha, scale 0 to 100): 0 | Plant response rating, Cocklebur [12, 22]: 30 | Plant response rating, Cocklebur [12, 23]: 30 | Plant response rating, Surinam grass ([13]; Rate 62 g/ha, scale 0 to 100): 0 | Plant response rating, Surinam grass [13, 22]: 40 | Plant response rating, Surinam grass [13, 23]: 40 | Plant response rating, Nutsedge ([14]; Rate 62 g/ha, scale 0 to 100): 0 | Plant response rating, Nutsedge [14, 22]: 0 | Plant response rating, Nutsedge [14, 23]: 0 | Plant response rating, Corn (corn (Zea mays); Rate 62 g/ha, scale 0 to 100): 0 | Plant response rating, Corn (corn (Zea mays); [22]): 20 | Plant response rating, Corn (corn (Zea mays); [23]): 30 | Plant response rating, Corn (corn (Zea mays); scale 0 to 100): 10 | Plant response rating, Goosegrass ([15]; Rate 62 g/ha, scale 0 to 100): 40 | Plant response rating, Goosegrass [15, 22]: 70 | Plant response rating, Goosegrass [15, 23]: 80 | Plant response rating, Pigweed ([16]; Rate 62 g/ha, scale 0 to 100): 20 | Plant response rating, Pigweed [16, 22]: 90 | Plant response rating, Pigweed [16, 23]: 100 | Plant response rating, Soybean (soybean (Glycine max); Rate 62 g/ha, scale 0 to 100): 20 | Plant response rating, Soybean (soybean (Glycine max); [22]): 30 | Plant response rating, Soybean (soybean (Glycine max); [23]): 50 | Plant response rating, Morningglory [17, 22]: 80 | Plant response rating, Morningglory [17, 23]: 100

CCC(C)c1ccn(C2CCN(c3ccc(Cl)c(OC)c3)C2=O)n1 (stereo not drawn) [Compound 119]
Plant response rating, Kochia (kochia (Kochia scoparia) [1]; [18]): 100 | Plant response rating, Kochia (kochia (Kochia scoparia) [1]; [19]): 100 | Plant response rating (0 to 100), Kochia (kochia (Kochia scoparia) [1]; preemergence): 100 | Plant response rating, Kochia (kochia (Kochia scoparia) [1]; [20]): 100 | Plant response rating (0 to 100), Cocklebur ([2]; preemergence): 50 | Plant response rating, Cocklebur [2, 20]: 20 | Plant response rating, Ragweed, Common [3, 18]: 100 | Plant response rating, Ragweed, Common [3, 19]: 100 | Plant response rating (0 to 100), Ragweed, Common ([3]; preemergence): 100 | Plant response rating, Ragweed, Common [3, 20]: 100 | Plant response rating, Nightshade (Nightshade; Rate 62 g/ha, scale 0 to 100): 100 | Plant response rating, Nightshade (Nightshade; [18]): 100 | Plant response rating, Nightshade (Nightshade; [21]): 100 | Plant response rating (0 to 100), Sunflower (Sunflower): 100 | Plant response rating, Lambsquarters ([4]; Rate 62 g/ha, scale 0 to 100): 90 | Plant response rating, Lambsquarters [4, 22]: 90 | Plant response rating, Lambsquarters [4, 23]: 100 | Plant response rating, Cupgrass, Woolly ([5]; Rate 62 g/ha, scale 0 to 100): 0 | Plant response rating, Cupgrass, Woolly [5, 22]: 0 | Plant response rating, Cupgrass, Woolly [5, 23]: 20 | Plant response rating, Bermudagrass ([6]; Rate 62 g/ha, scale 0 to 100): 0 | Plant response rating, Bermudagrass [6, 18]: 0 | Plant response rating, Bermudagrass [6, 22]: 0 | Plant response rating, Bermudagrass [6, 23]: 0 | Plant response rating, Kochia (kochia (Kochia scoparia) [7]; Rate 62 g/ha, scale 0 to 100): 60 | Plant response rating, Kochia (kochia (Kochia scoparia) [7]; [22]): 90 | Plant response rating, Kochia (kochia (Kochia scoparia) [7]; [23]): 90 | Plant response rating, Johnsongrass ([8]; Rate 62 g/ha, scale 0 to 100): 0 | Plant response rating, Johnsongrass [8, 22]: 0 | Plant response rating, Johnsongrass [8, 23]: 0 | Plant response rating, Johnsongrass ([8]; rate not given, scale 0 to 100): 0 | Plant response rating, Foxtail, Giant ([9]; Rate 62 g/ha, scale 0 to 100): 0 | Plant response rating, Foxtail, Giant [9, 22]: 0 | Plant response rating, Foxtail, Giant [9, 23]: 80 | Plant response rating, Velvetleaf ([10]; Rate 62 g/ha, scale 0 to 100): 0 | Plant response rating, Velvetleaf [10, 22]: 10 | Plant response rating, Velvetleaf [10, 23]: 20 | Plant response rating, Velvetleaf ([10]; scale 0 to 100): 0 | Plant response rating, Crabgrass ([11]; Rate 62 g/ha, scale 0 to 100): 30 | Plant response rating, Crabgrass [11, 22]: 30 | Plant response rating, Crabgrass [11, 23]: 60 | Plant response rating, Cocklebur ([12]; Rate 62 g/ha, scale 0 to 100): 50 | Plant response rating, Cocklebur [12, 22]: 70 | Plant response rating, Surinam grass ([13]; Rate 62 g/ha, scale 0 to 100): 0 | Plant response rating, Surinam grass [13, 18]: 0 | Plant response rating, Surinam grass [13, 22]: 0 | Plant response rating, Surinam grass [13, 23]: 20 | Plant response rating, Nutsedge ([14]; Rate 62 g/ha, scale 0 to 100): 0 | Plant response rating, Nutsedge [14, 22]: 0 | Plant response rating, Nutsedge [14, 23]: 0 | Plant response rating, Corn (corn (Zea mays); Rate 62 g/ha, scale 0 to 100): 20 | Plant response rating, Corn (corn (Zea mays); [22]): 20 | Plant response rating, Corn (corn (Zea mays); [23]): 50 | Plant response rating, Corn (corn (Zea mays); scale 0 to 100): 20 | Plant response rating, Goosegrass ([15]; Rate 62 g/ha, scale 0 to 100): 0 | Plant response rating, Goosegrass [15, 22]: 0 | Plant response rating, Goosegrass [15, 23]: 30 | Plant response rating, Pigweed ([16]; Rate 62 g/ha, scale 0 to 100): 40 | Plant response rating, Pigweed [16, 22]: 90 | Plant response rating, Soybean (soybean (Glycine max); Rate 62 g/ha, scale 0 to 100): 40 | Plant response rating, Soybean (soybean (Glycine max); [22]): 80 | Plant response rating, Soybean (soybean (Glycine max); [23]): 90 | Plant response rating, Morningglory ([17]; Rate 62 g/ha, scale 0 to 100): 80 | Plant response rating, Morningglory [17, 22]: 100
